In the supplement of paper PMC10307832:

Legend:
Assay in all cases: relative viability (nuclei count vs DMSO), 5 days (fraction); higher = more cells survive
A-427 = test system: A-427
Method in brief: (§1)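 The day after seeding in 1536-well plates, lung cancer cell lines were treated by pin tool with a single drug, or with a fixed anchor-drug dose together with five library-drug doses (not always all listed) in √10 steps. After 5 days, a combined fix-and-stain solution (final 0.05% Triton X-100, 1% formaldehyde, 1 ug/ml Hoechst) was added. Nuclei counted on 4× images gave relative viability as treated counts over vehicle counts, reported as the median of duplicate plates.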

HCC-366 = test system: HCC-366
Method in brief: as §1

HCC-827 = test system: HCC-827
Method in brief: as §1

LC-2-ad = test system: LC-2-ad
Method in brief: as §1

LCLC-103H = test system: LCLC-103H
Method in brief: as §1

NCI-H1355 = test system: NCI-H1355
Method in brief: as §1

NCI-H1734 = test system: NCI-H1734
Method in brief: as §1

NCI-H1755 = test system: NCI-H1755
Method in brief: as §1

NCI-H1915 = test system: NCI-H1915
Method in brief: as §1

NCI-H1975 = test system: NCI-H1975
Method in brief: as §1

NCI-H1993 = test system: NCI-H1993
Method in brief: as §1

NCI-H2170 = test system: NCI-H2170
Method in brief: as §1

NCI-H2228 = test system: NCI-H2228
Method in brief: as §1

NCI-H2342 = test system: NCI-H2342
Method in brief: as §1

NCI-H2347 = test system: NCI-H2347
Method in brief: as §1

NCI-H23 = test system: NCI-H23
Method in brief: as §1

NCI-H650 = test system: NCI-H650
Method in brief: as §1

RERF-LC-KJ = test system: RERF-LC-KJ
Method in brief: as §1

SK-LU-1 = test system: SK-LU-1
Method in brief: as §1

SK-MES-1 = test system: SK-MES-1
Method in brief: as §1

SW 1573 = test system: SW 1573
Method in brief: as §1

UMC-11 = test system: UMC-11
Method in brief: as §1

CN1CCN(CCOc2cc(OC3CCOCC3)c3c(Nc4c(Cl)ccc5c4OCO5)ncnc3c2)CC1 [Saracatinib] + Cc1cc(Nc2cc(N3CCN(C)CC3)nc(Sc3ccc(NC(=O)C4CC4)cc3)n2)n[nH]1 [Tozasertib] (partner 0.1 µM)
relative viability (A-427; first compound 0.02 µM): 0.215 | relative viability (A-427; first compound 0.2 µM): 0.18 | relative viability (A-427; first compound 0.6325 µM): 0.207 | relative viability (A-427; first compound 2 µM): 0.206 | relative viability (HCC-366; first compound 0.02 µM): 0.117 | relative viability (HCC-366; first compound 0.6325 µM): 0.074 | relative viability (HCC-366; first compound 2 µM): 0.0412 | relative viability (HCC-827; first compound 0.02 µM): 0.404 | relative viability (HCC-827; first compound 0.2 µM): 0.311 | relative viability (HCC-827; first compound 0.6325 µM): 0.171 | relative viability (HCC-827; first compound 2 µM): 0.11 | relative viability (LC-2-ad; first compound 0.02 µM): 0.39 | relative viability (LC-2-ad; first compound 0.2 µM): 0.427 | relative viability (LC-2-ad; first compound 0.6325 µM): 0.464 | relative viability (LC-2-ad; first compound 2 µM): 0.408 | relative viability (LCLC-103H; first compound 0.02 µM): 0.46 | relative viability (LCLC-103H; first compound 0.2 µM): 0.465 | relative viability (LCLC-103H; first compound 0.6325 µM): 0.465 | relative viability (LCLC-103H; first compound 2 µM): 0.454 | relative viability (NCI-H1355; first compound 0.02 µM): 0.532 | relative viability (NCI-H1355; first compound 0.2 µM): 0.317 | relative viability (NCI-H1355; first compound 0.6325 µM): 0.454 | relative viability (NCI-H1355; first compound 2 µM): 0.36 | relative viability (NCI-H1734; first compound 0.02 µM): 0.305 | relative viability (NCI-H1734; first compound 0.6325 µM): 0.261 | relative viability (NCI-H1734; first compound 2 µM): 0.24 | relative viability (NCI-H1755; first compound 0.02 µM): 0.526 | relative viability (NCI-H1755; first compound 0.2 µM): 0.528 | relative viability (NCI-H1755; first compound 0.6325 µM): 0.644 | relative viability (NCI-H1755; first compound 2 µM): 0.459 | relative viability (NCI-H1915; first compound 0.02 µM): 0.432 | relative viability (NCI-H1915; first compound 0.2 µM): 0.382 | relative viability (NCI-H1915; first compound 0.6325 µM): 0.461 | relative viability (NCI-H1915; first compound 2 µM): 0.343 | relative viability (NCI-H1975; first compound 0.02 µM): 0.697 | relative viability (NCI-H1975; first compound 0.2 µM): 0.709 | relative viability (NCI-H1975; first compound 0.6325 µM): 0.675 | relative viability (NCI-H1975; first compound 2 µM): 0.33 | relative viability (NCI-H1993; first compound 0.02 µM): 0.6 | relative viability (NCI-H1993; first compound 0.2 µM): 0.559 | relative viability (NCI-H1993; first compound 0.6325 µM): 0.569 | relative viability (NCI-H1993; first compound 2 µM): 0.576 | relative viability (NCI-H2170; first compound 0.02 µM): 0.736 | relative viability (NCI-H2170; first compound 0.2 µM): 0.371 | relative viability (NCI-H2170; first compound 0.6325 µM): 0.723 | relative viability (NCI-H2170; first compound 2 µM): 0.429 | relative viability (NCI-H2228; first compound 0.02 µM): 0.222 | relative viability (NCI-H2228; first compound 0.2 µM): 0.148 | relative viability (NCI-H2228; first compound 0.6325 µM): 0.213 | relative viability (NCI-H2228; first compound 2 µM): 0.154 | relative viability (NCI-H2342; first compound 0.02 µM): 0.499 | relative viability (NCI-H2342; first compound 0.2 µM): 0.608 | relative viability (NCI-H2342; first compound 0.6325 µM): 0.473 | relative viability (NCI-H2342; first compound 2 µM): 0.496 | relative viability (NCI-H2347; first compound 0.02 µM): 0.514 | relative viability (NCI-H2347; first compound 0.2 µM): 0.517 | relative viability (NCI-H2347; first compound 0.6325 µM): 0.539 | relative viability (NCI-H2347; first compound 2 µM): 0.518 | relative viability (NCI-H23; first compound 0.02 µM): 0.743 | relative viability (NCI-H23; first compound 0.2 µM): 0.345 | relative viability (NCI-H23; first compound 0.6325 µM): 0.426 | relative viability (NCI-H23; first compound 2 µM): 0.327 | relative viability (NCI-H650; first compound 0.02 µM): 0.65 | relative viability (NCI-H650; first compound 0.2 µM): 0.656 | relative viability (NCI-H650; first compound 0.6325 µM): 0.701 | relative viability (NCI-H650; first compound 2 µM): 0.716 | relative viability (RERF-LC-KJ; first compound 0.02 µM): 0.52 | relative viability (RERF-LC-KJ; first compound 0.2 µM): 0.465 | relative viability (RERF-LC-KJ; first compound 0.6325 µM): 0.497 | relative viability (RERF-LC-KJ; first compound 2 µM): 0.363 | relative viability (SK-LU-1; first compound 0.02 µM): 0.354 | relative viability (SK-LU-1; first compound 0.2 µM): 0.231 | relative viability (SK-LU-1; first compound 0.6325 µM): 0.172 | relative viability (SK-LU-1; first compound 2 µM): 0.132 | relative viability (SK-MES-1; first compound 0.02 µM): 0.868 | relative viability (SK-MES-1; first compound 0.2 µM): 0.836 | relative viability (SK-MES-1; first compound 0.6325 µM): 0.872 | relative viability (SK-MES-1; first compound 2 µM): 0.666 | relative viability (SW 1573; first compound 0.02 µM): 0.142 | relative viability (SW 1573; first compound 0.2 µM): 0.207 | relative viability (SW 1573; first compound 0.6325 µM): 0.189 | relative viability (SW 1573; first compound 2 µM): 0.188 | relative viability (UMC-11; first compound 0.02 µM): 0.206 | relative viability (UMC-11; first compound 0.2 µM): 0.175 | relative viability (UMC-11; first compound 0.6325 µM): 0.213 | relative viability (UMC-11; first compound 2 µM): 0.185
